The record followed here is publication PMC5218480 (PLoS ONE, 2017).

The experiment has as its system MV-4-11 cells. As to the kind of experiment: Gene expression microarray analysis (Affymetrix PrimeView) and GSEA. The experiment is classed as cell-based, human. Further details: RFU PODN (11730768_x_at) / Fold change /veh PODN (11730768_x_at) / RFU LINC00158 (11744669_a_at) / Fold change /veh LINC00158 (11744669_a_at) / RFU DUSP10 (11751237_a_at) / Fold change /veh DUSP10 (11751237_a_at) / RFU ID3 (11757404_x_at) / Fold change /veh ID3 (11757404_x_at) / RFU PLEKHG5 (11737974_s_at) / Fold change /veh PLEKHG5 (11737974_s_at) / RFU LRRC4B (11730491_at) / Fold change /veh LRRC4B (11730491_at) / RFU GIMAP4 (11747438_a_at) / Fold change /veh GIMAP4 (11747438_a_at) / RFU KRT8 (11758183_x_at) / Fold change /veh KRT8 (11758183_x_at) / RFU CNN1 (11734310_a_at) / Fold change /veh CNN1 (11734310_a_at) / RFU VPS37D (11726825_at) / Fold change /veh VPS37D (11726825_at) / RFU C10orf10 (11716522_x_at) / Fold change /veh C10orf10 (11716522_x_at) / RFU KIR2DL2 /// KIR2DL4 /// KIR2DL5A /// KIR2DL5B /// KIR2DS1 /// KIR2DS2 /// KIR2DS3 /// KIR2DS4 /// KIR3DL3 /// KIR3DL3 /// KIR3DS1 (11738374_at) / Fold change /veh KIR2DL2 /// KIR2DL4 /// KIR2DL5A /// KIR2DL5B /// KIR2DS1 /// KIR2DS2 /// KIR2DS3 /// KIR2DS4 /// KIR3DL3 /// KIR3DL3 /// KIR3DS1 (11738374_at) / RFU C1QL1 (11718748_at) / Fold change /veh C1QL1 (11718748_at) / RFU TMPRSS4 (11747572_a_at) / Fold change /veh TMPRSS4 (11747572_a_at) / RFU HAMP (11756126_x_at) / Fold change /veh HAMP (11756126_x_at) / RFU RNFT2 (11725882_a_at) / Fold change /veh RNFT2 (11725882_a_at) / RFU NR4A2 (11747474_a_at) / Fold change /veh NR4A2 (11747474_a_at) / RFU ABCC12 (11746883_a_at) / Fold change /veh ABCC12 (11746883_a_at) / RFU TMEM136 (11760407_x_at) / Fold change /veh TMEM136 (11760407_x_at) / RFU CLDN22 /// WWC2 (11732394_at) / Fold change /veh CLDN22 /// WWC2 (11732394_at) / RFU HLA-DPB1 (11760878_x_at) / Fold change /veh HLA-DPB1 (11760878_x_at) / RFU SPINT1 (11716480_a_at) / Fold change /veh SPINT1 (11716480_a_at) / RFU GAP43 (11754022_s_at) / Fold change /veh GAP43 (11754022_s_at) / RFU A4GNT (11735810_at) / Fold change /veh A4GNT (11735810_at) / RFU PRB3 (11715151_x_at) / Fold change /veh PRB3 (11715151_x_at) / RFU TUBB4B (11761932_at) / Fold change /veh TUBB4B (11761932_at) / RFU CAPN14 (11732068_a_at) / Fold change /veh CAPN14 (11732068_a_at) / RFU TMCC2 (11721928_a_at) / Fold change /veh TMCC2 (11721928_a_at) / RFU IRGQ (11745062_a_at) / Fold change /veh IRGQ (11745062_a_at) / RFU FAM174B (11720279_a_at) / Fold change /veh FAM174B (11720279_a_at) / RFU TMPRSS4 (11748680_a_at) / Fold change /veh TMPRSS4 (11748680_a_at) / RFU FAM212B (11763350_a_at) / Fold change /veh FAM212B (11763350_a_at) / RFU PLEKHG5 (11743358_a_at) / Fold change /veh PLEKHG5 (11743358_a_at) / RFU ZSCAN30 (11745921_a_at) / Fold change /veh ZSCAN30 (11745921_a_at) / RFU CMKLR1 (11741424_a_at) / Fold change /veh CMKLR1 (11741424_a_at) / RFU LOC101060620 /// MAPK8IP1 (11723275_at) / Fold change /veh LOC101060620 /// MAPK8IP1 (11723275_at) / RFU SPTSSB (11747773_x_at) / Fold change /veh SPTSSB (11747773_x_at) / RFU PRSS12 (11739890_at) / Fold change /veh PRSS12 (11739890_at) / RFU BIN1 (11741810_x_at) / Fold change /veh BIN1 (11741810_x_at) / RFU WNT11 (11732464_a_at) / Fold change /veh WNT11 (11732464_a_at) / RFU C10orf10 (11716521_a_at) / Fold change /veh C10orf10 (11716521_a_at) / RFU C5orf56 (11738089_at) / Fold change /veh C5orf56 (11738089_at) / RFU CYB561 (11721691_x_at) / Fold change /veh CYB561 (11721691_x_at) / RFU ANKRD19P (11752326_a_at) / Fold change /veh ANKRD19P (11752326_a_at) / RFU OR2T12 /// OR2T33 /// OR2T8 (11738714_s_at) / Fold change /veh OR2T12 /// OR2T33 /// OR2T8 (11738714_s_at) / RFU VCAN (11748164_a_at) / Fold change /veh VCAN (11748164_a_at) / RFU JSRP1 (11732532_at) / Fold change /veh JSRP1 (11732532_at) / RFU KRTAP10-11 (11738290_x_at) / Fold change /veh KRTAP10-11 (11738290_x_at) / RFU MYO3A (11730013_a_at) / Fold change /veh MYO3A (11730013_a_at) / RFU EBF3 (11725865_a_at) / Fold change /veh EBF3 (11725865_a_at) / RFU CAMK2N1 (11719241_x_at) / Fold change /veh CAMK2N1 (11719241_x_at) / RFU C5orf56 (11738088_a_at) / Fold change /veh C5orf56 (11738088_a_at) / RFU OLFML3 (11715873_a_at) / Fold change /veh OLFML3 (11715873_a_at) / RFU LOC100653217 /// NTM (11731650_a_at) / Fold change /veh LOC100653217 /// NTM (11731650_a_at) / RFU MAPK11 (11762145_a_at) / Fold change /veh MAPK11 (11762145_a_at) / RFU FIZ1 (11724087_x_at) / Fold change /veh FIZ1 (11724087_x_at) / RFU OASL (11726364_x_at) / Fold change /veh OASL (11726364_x_at) / RFU SOX15 (11748057_x_at) / Fold change /veh SOX15 (11748057_x_at) / RFU CD79A (11719716_a_at) / Fold change /veh CD79A (11719716_a_at) / RFU HIST1H1D (11736915_at) / Fold change /veh HIST1H1D (11736915_at) / RFU CASKIN2 (11723855_a_at) / Fold change /veh CASKIN2 (11723855_a_at) / RFU LOC730098 (11760151_x_at) / Fold change /veh LOC730098 (11760151_x_at) / RFU OR4N2 (11742367_at) / Fold change /veh OR4N2 (11742367_at) / RFU PRRT2 (11749266_a_at) / Fold change /veh PRRT2 (11749266_a_at) / RFU SNX32 (11753110_a_at) / Fold change /veh SNX32 (11753110_a_at) / RFU CDHR5 (11726645_a_at) / Fold change /veh CDHR5 (11726645_a_at) / RFU RCAN1 (11760418_a_at) / Fold change /veh RCAN1 (11760418_a_at) / RFU FAM167A (11723789_a_at) / Fold change /veh FAM167A (11723789_a_at) / RFU FAM26E (11764081_at) / Fold change /veh FAM26E (11764081_at) / RFU ISYNA1 (11749810_s_at) / Fold change /veh ISYNA1 (11749810_s_at) / RFU ACY1 (11761880_at) / Fold change /veh ACY1 (11761880_at) / RFU 11764098_at / Fold change /veh 11764098_at / RFU SAMD14 (11745864_x_at) / Fold change /veh SAMD14 (11745864_x_at) / RFU NPB (11741838_a_at) / Fold change /veh NPB (11741838_a_at) / RFU TMPRSS6 (11731388_a_at) / Fold change /veh TMPRSS6 (11731388_a_at) / RFU KRTAP10-2 (11738614_at) / Fold change /veh KRTAP10-2 (11738614_at) / RFU ARHGAP8 /// PRR5-ARHGAP8 (11727945_x_at) / Fold change /veh ARHGAP8 /// PRR5-ARHGAP8 (11727945_x_at) / RFU KRTAP5-7 /// NADSYN1 (11734609_at) / Fold change /veh KRTAP5-7 /// NADSYN1 (11734609_at) / RFU RASL12 (11751679_a_at) / Fold change /veh RASL12 (11751679_a_at) / RFU CDKN2B (11736163_a_at) / Fold change /veh CDKN2B (11736163_a_at) / RFU PRF1 (11729649_at) / Fold change /veh PRF1 (11729649_at) / RFU, ZNF638 /// ZNF638-IT1 / Fold change vs veh, ZNF638 /// ZNF638-IT1 / RFU, PANK3 / Fold change vs veh, PANK3 / RFU, SH3YL1 / Fold change vs veh, SH3YL1 / RFU, ZEB2 / Fold change vs veh, ZEB2 / RFU, NRIP1 / Fold change vs veh, NRIP1 / RFU, PTTG1IP / Fold change vs veh, PTTG1IP / RFU, CAPN2 / Fold change vs veh, CAPN2 / RFU, MED14 / Fold change vs veh, MED14 / RFU, SNORA58 / Fold change vs veh, SNORA58 / RFU, C1orf63 / Fold change vs veh, C1orf63 / RFU, LRRFIP1 / Fold change vs veh, LRRFIP1 / RFU, NDUFAF7 / Fold change vs veh, NDUFAF7 / RFU, SLC12A2 / Fold change vs veh, SLC12A2 / RFU, IBTK / Fold change vs veh, IBTK / RFU, ESF1 / Fold change vs veh, ESF1 / Fold change vs veh, TMEM50B / RFU, TAOK1 / Fold change vs veh, TAOK1 / RFU, ACBD3 / Fold change vs veh, ACBD3 / RFU, TMA16 / Fold change vs veh, TMA16 / RFU, RWDD3 / Fold change vs veh, RWDD3 / RFU, BCAT1 / Fold change vs veh, BCAT1 / RFU, EDEM3 / Fold change vs veh, EDEM3 / RFU, TMEM33 / Fold change vs veh, TMEM33 / RFU, WDR75 / Fold change vs veh, WDR75 / RFU, AHCTF1 / Fold change vs veh, AHCTF1 / RFU, TFRC / Fold change vs veh, TFRC / RFU, ZDHHC17 / Fold change vs veh, ZDHHC17 / RFU, NOM1 / Fold change vs veh, NOM1 / RFU, ARL8B / Fold change vs veh, ARL8B / RFU, ZBTB11 / Fold change vs veh, ZBTB11 / RFU, TAMM41 / Fold change vs veh, TAMM41 / RFU, KIAA1704 /// LOC100996395 / Fold change vs veh, KIAA1704 /// LOC100996395 / RFU, ING1 / Fold change vs veh, ING1 / RFU, TRMT61B / Fold change vs veh, TRMT61B / RFU, FUBP3 / Fold change vs veh, FUBP3 / RFU, TP53 / Fold change vs veh, TP53 / RFU, TNKS2 / Fold change vs veh, TNKS2 / RFU, ZFP14 / Fold change vs veh, ZFP14 / RFU, ACTR2 / Fold change vs veh, ACTR2 / RFU, PPP3R1 / Fold change vs veh, PPP3R1 / RFU, PIK3R1 / Fold change vs veh, PIK3R1 / RFU, HNRNPA1 / Fold change vs veh, HNRNPA1 / RFU, RNF170 / Fold change vs veh, RNF170 / RFU, ZNF28 / Fold change vs veh, ZNF28 / RFU, RNGTT / Fold change vs veh, RNGTT / RFU, OGT / Fold change vs veh, OGT / RFU, BRD1 / Fold change vs veh, BRD1 / RFU, MARS / Fold change vs veh, MARS / RFU, ZNF655 / Fold change vs veh, ZNF655 / RFU, FAHD1 / Fold change vs veh, FAHD1 / RFU, BDP1 / Fold change vs veh, BDP1 / RFU, LRRCC1 / Fold change vs veh, LRRCC1 / RFU, ARID1A / Fold change vs veh, ARID1A / RFU, ZNF146 / Fold change vs veh, ZNF146 / RFU, ZNF330 / Fold change vs veh, ZNF330 / RFU, GPN3 / Fold change vs veh, GPN3 / RFU, C9orf123 / Fold change vs veh, C9orf123 / RFU, N4BP2L2 / Fold change vs veh, N4BP2L2 / RFU, ARFIP1 / Fold change vs veh, ARFIP1 / RFU, FAM179B / Fold change vs veh, FAM179B / RFU, BCL10 / Fold change vs veh, BCL10 / RFU, UHRF1BP1L / Fold change vs veh, UHRF1BP1L / RFU, BET1 / Fold change vs veh, BET1 / RFU, CNOT2 / Fold change vs veh, CNOT2 / RFU, ZNF268 / Fold change vs veh, ZNF268 / Fold change vs veh, ZNF507 / RFU, DGCR2 / Fold change vs veh, DGCR2 / RFU, WDSUB1 / Fold change vs veh, WDSUB1 / Fold change vs veh, HSP90B1 /// MIR3652 / RFU, ADSS / Fold change vs veh, ADSS / RFU, GK / Fold change vs veh, GK / RFU, ZNF148 / Fold change vs veh, ZNF148 / RFU, TAF9 / Fold change vs veh, TAF9 / RFU, SLC1A5 / Fold change vs veh, SLC1A5 / RFU, SLMO2 / Fold change vs veh, SLMO2 / RFU, ABCC4 / Fold change vs veh, ABCC4 / RFU, LOC101060439 /// RAP1B / Fold change vs veh, LOC101060439 /// RAP1B / RFU, RFX7 / Fold change vs veh, RFX7 / RFU, GTPBP10 / Fold change vs veh, GTPBP10 / RFU, CNEP1R1 / Fold change vs veh, CNEP1R1 / RFU, BIVM-ERCC5 /// ERCC5 / Fold change vs veh, BIVM-ERCC5 /// ERCC5 / RFU, ILF3 / Fold change vs veh, ILF3 / RFU 11762660_at / Fold change /veh 11762660_at / RFU VCAN (11757783_s_at) / Fold change /veh VCAN (11757783_s_at) / RFU DDX43 (11728927_at) / Fold change /veh DDX43 (11728927_at) / RFU KRT8 (11758188_x_at) / Fold change /veh KRT8 (11758188_x_at) / RFU NKD1 (11759106_at) / Fold change /veh NKD1 (11759106_at) / RFU SRD5A1 (11742802_a_at) / Fold change /veh SRD5A1 (11742802_a_at) / RFU TPSAB1 /// TPSB2 (11721975_s_at) / Fold change /veh TPSAB1 /// TPSB2 (11721975_s_at) / RFU GSTM3 (11746129_a_at) / Fold change /veh GSTM3 (11746129_a_at) / RFU IL23R (11737362_x_at) / Fold change /veh IL23R (11737362_x_at) / RFU TMEM51 (11727254_a_at) / Fold change /veh TMEM51 (11727254_a_at) / RFU PIWIL2 (11732686_x_at) / Fold change /veh PIWIL2 (11732686_x_at) / RFU ORM1 (11744905_x_at) / Fold change /veh ORM1 (11744905_x_at) / RFU CCDC152 (11743942_at) / Fold change /veh CCDC152 (11743942_at) / RFU ECM1 (11717891_a_at) / Fold change /veh ECM1 (11717891_a_at) / RFU IL23R (11748794_a_at) / Fold change /veh IL23R (11748794_a_at) / RFU TNFAIP8L3 (11732012_x_at) / Fold change /veh TNFAIP8L3 (11732012_x_at) / RFU MBOAT4 (11741988_at) / Fold change /veh MBOAT4 (11741988_at) / RFU 11764193_at / Fold change /veh 11764193_at / RFU TMEM53 (11763286_at) / Fold change /veh TMEM53 (11763286_at) / RFU MAGEB2 (11727129_at) / Fold change /veh MAGEB2 (11727129_at) / RFU TMEM200A (11744735_a_at) / Fold change /veh TMEM200A (11744735_a_at) / RFU CCDC152 (11751479_a_at) / Fold change /veh CCDC152 (11751479_a_at) / RFU FAM211A (11726209_a_at) / Fold change /veh FAM211A (11726209_a_at) / RFU RGS16 (11746705_a_at) / Fold change /veh RGS16 (11746705_a_at) / RFU VCAN (11755009_s_at) / Fold change /veh VCAN (11755009_s_at) / RFU RHOB (11743442_s_at) / Fold change /veh RHOB (11743442_s_at) / RFU RGS16 (11720943_a_at) / Fold change /veh RGS16 (11720943_a_at) / RFU RGS16 (11720944_at) / Fold change /veh RGS16 (11720944_at) / RFU, VPS4B / Fold change vs veh, VPS4B / RFU, CREB1 / Fold change vs veh, CREB1 / RFU, DNAJC13 / Fold change vs veh, DNAJC13 / RFU, GNAQ / Fold change vs veh, GNAQ / RFU, CDK5R1 / Fold change vs veh, CDK5R1 / RFU, ZRANB3 / Fold change vs veh, ZRANB3 / RFU, CUL4A / Fold change vs veh, CUL4A / RFU, CCNY / Fold change vs veh, CCNY / RFU, UFL1 / Fold change vs veh, UFL1 / RFU, COG3 / Fold change vs veh, COG3 / RFU, DIAPH2 / Fold change vs veh, DIAPH2 / RFU, SKA2 / Fold change vs veh, SKA2 / RFU, AFF3 / Fold change vs veh, AFF3 / RFU, LMF1 / Fold change vs veh, LMF1 / RFU, IPO11 / Fold change vs veh, IPO11 / RFU, DFFB / Fold change vs veh, DFFB / RFU, FOXP1 / Fold change vs veh, FOXP1 / RFU, CARD8 / Fold change vs veh, CARD8 / RFU, STRN3 / Fold change vs veh, STRN3 / RFU, ADK / Fold change vs veh, ADK / RFU, RASSF2 / Fold change vs veh, RASSF2 / RFU, WIPF1 / Fold change vs veh, WIPF1 / RFU, LARP1B / Fold change vs veh, LARP1B / RFU, RASA1 / Fold change vs veh, RASA1 / RFU, RB1 / Fold change vs veh, RB1 / RFU, PPFIA1 / Fold change vs veh, PPFIA1 / RFU, MAT2A / Fold change vs veh, MAT2A / RFU, CCT5 / Fold change vs veh, CCT5 / RFU, WDR92 / Fold change vs veh, WDR92 / RFU, CUX1 / Fold change vs veh, CUX1 / RFU, TTC7A / Fold change vs veh, TTC7A / RFU, TMEM135 / Fold change vs veh, TMEM135 / RFU, DEPTOR / Fold change vs veh, DEPTOR / RFU, CPM / Fold change vs veh, CPM / RFU, DNAJB6 / Fold change vs veh, DNAJB6 / RFU, CACNA2D3 / Fold change vs veh, CACNA2D3 / RFU, DTX4 / Fold change vs veh, DTX4 / RFU, TFCP2 / Fold change vs veh, TFCP2 / RFU, GMCL1 /// GMCL1P1 / Fold change vs veh, GMCL1 /// GMCL1P1 / RFU, AEBP2 / Fold change vs veh, AEBP2 / RFU, SNHG1 /// SNORD22 /// SNORD25 /// SNORD26 /// SNORD27 /// SNORD28 /// SNORD29 /// SNORD31 / Fold change vs veh, SNHG1 /// SNORD22 /// SNORD25 /// SNORD26 /// SNORD27 /// SNORD28 /// SNORD29 /// SNORD31 / Fold change (Aza/veh), C12orf56 (ProbeSet 11735607_a_at) / Fold change (ACY-1035/veh), C12orf56 (ProbeSet 11735607_a_at) / Fold change (Aza/veh), FGFR1OP (ProbeSet 11751329_s_at) / Fold change (ACY-1035/veh), FGFR1OP (ProbeSet 11751329_s_at) / Fold change (Aza/veh), VPS36 (ProbeSet 11739960_a_at) / Fold change (ACY-1035/veh), VPS36 (ProbeSet 11739960_a_at) / RFU SYPL1 (11715823_x_at) / Fold change /veh SYPL1 (11715823_x_at) / RFU IGFBP7 (11715501_s_at) / Fold change /veh IGFBP7 (11715501_s_at) / RFU REEP3 (11722064_at) / Fold change /veh REEP3 (11722064_at) / RFU IGLL1 (11728026_x_at) / Fold change /veh IGLL1 (11728026_x_at): dose or concentration left out as unconfirmed. The conditions noted are these: MV-4-11 cells, 48 hours.

Regarding `Nc1ccc(-c2cccs2)cc1NC(=O)c1ccc2c(c1)cc(C1CC1)n2CCN1CCOCC1` [ACY-1035], the “RFU LINC00158 (11744669_a_at)” value was 7.93 RFU.
